Measured values: patent US12110305B2, “Prodrugs of phosphonamide nucleotide analogues and their pharmaceutical use” (priority 2020, dated 2024)

Test system: HIV-1 (IIIB)
Assay: Antiviral (HIV) assay in MT-4 cells
Assay type: cell-based
Conditions: Human immunodeficiency virus 1, MT4, 120 h; HIV-1 IIIB in MT-4 cells, 5 days incubation, Cell Titer Glo; average of at least two independent experiments
Experimental: Example 104: Antiviral (HIV) Assay in MT-4 Cells
Compounds were tested in a high-throughput 384-well assay format for their ability to inhibit the replication of HIV-1 (IIIB) in MT-4 cells. Compounds were serially diluted (1:3) in DMSO on 384-well polypropylene plates and further diluted 200-fold into complete RPMI media (10% FBS, 1% P/S) using the Biotek Micro Flow and Labcyte ECHO acoustic dispenser. Each plate contained up to 8 test compounds, with negative (no drug) and positive (5 μM AZT) controls. MT-4 cells were pre-treated with 10 μL of either RPMI (mock-infected) or a fresh 1:250 dilution of HIV-1 IIIB concentrated virus stock. Infected and uninfected MT-4 cells were further diluted in complete RPMI media and added to each plate using a Micro Flow dispenser. After 5 days incubation in a humidified and temperature-controlled incubator (37° C.), Cell Titer Glo (Promega) was added to the assay plates and chemiluminescence read using an Envision plate-reader. EC50 values were defined as the compound concentration that causes a 50% decrease in luminescence signal and were calculated using a sigmoidal dose-response model to generate curve fits and are shown in Table 1.

EC50 [nM] | Compound
24 | CCCCCCCCOC(=O)C(C)(C)NP(=O)(CO[C@H](C)Cn1cnc2c(N)ncnc21)NC(C)(C)C(=O)OCCCCCCCC [Example 39, Dioctyl 2,2′-(((((1-(6-amino-9H-purin-9-yl)propan-2-yl)oxy)methyl)phosphoryl)bis(azanediyl))(R)-bis(2-methylpropanoate)]
> 500 | CCCCCCOC(=O)[C@@]1(NP(=O)(CO[C@H](C)Cn2cnc3c(N)ncnc32)N[C@]2(C(=O)OCCCCCC)C[C@H]2CC)C[C@H]1CC [Example 17, Dihexyl 1,1′-((((((R)-1-(6-amino-9H-purin-9-yl)propan-2-yl)oxy)methyl)phosphoryl)bis(azanediyl))(1R,1′R,2R,2′R)-bis(2-ethylcyclopropane-1-carboxylate)]
> 500 | CCCCCCOC(=O)C(C)(C)NP(=O)(CO[C@H](C)Cn1cnc2c(NC(=O)OCCC)ncnc21)NC(C)(C)C(=O)OCCCCCC [Example 31, Dihexyl 2,2′-(((((1-(6-((propoxycarbonyl)amino)-9H-purin-9-yl)propan-2-yl)oxy)methyl)phosphoryl)bis(azanediyl))(R)-bis(2-methylpropanoate)]
> 500 | CCCCCCOC(=O)C(NP(=O)(CO[C@H](C)Cn1cnc2c(N)ncnc21)NC(C(=O)OCCCCCC)(C1CC1)C1CC1)(C1CC1)C1CC1 [Example 64, Dihexyl 2,2′-(((((1-(6-amino-9H-purin-9-yl)propan-2-yl)oxy)methyl)phosphoryl)bis(azanediyl))(R)-bis(2,2-dicyclopropylacetate)]
130 | CCCCCCOC(=O)C(C)(C)NP(=O)(CO[C@H](C)Cn1cnc2c(NC(=O)OCCOC(=O)c3ccccc3)ncnc21)NC(C)(C)C(=O)OCCCCCC [Example 94, Dihexyl 2,2′-(((((1-(6-(((2-(benzoyloxy)ethoxy)carbonyl)amino)-9H-purin-9-yl)propan-2-yl)oxy)methyl)phosphoryl)bis(azanediyl))(R)-bis(2-methylpropanoate)]
7 | C[C@H](Cn1cnc2c(N)ncnc21)OCP(=O)(NC(C)(C)C(=O)OCCC1CCCCC1)NC(C)(C)C(=O)OCCC1CCCCC1 [Example 14, Bis(2-cyclohexylethyl) 2,2′-(((((1-(6-amino-9H-purin-9-yl)propan-2-yl)oxy)methyl)phosphoryl)bis(azanediyl))(R)-bis(2-methylpropanoate)]
68 | CCCCCCCCCCCC(=O)Nc1ncnc2c1ncn2C[C@@H](C)OCP(=O)(NC(C)(C)C(=O)OCCCCCC)NC(C)(C)C(=O)OCCCCCC [Example 30, Dihexyl 2,2′-(((((1-(6-dodecanamido-9H-purin-9-yl)propan-2-yl)oxy)methyl)phosphoryl)bis(azanediyl))(R)-bis(2-methylpropanoate)]
30 | CCCCCCOC(=O)C1(NP(=O)(CO[C@H](C)Cn2cnc3c(N)ncnc32)NC2(C(=O)OCCCCCC)CCC2)CCC1 [Example 19, Dihexyl 1,1′-(((((1-(6-amino-9H-purin-9-yl)propan-2-yl)oxy)methyl)phosphoryl)bis(azanediyl))(R)-bis(cyclobutane-1-carboxylate)]
12 | CCCCCCOC(=O)C(C)(C)NP(=O)(CO[C@H](C)Cn1cnc2c(N)ncnc21)NC1(C(=O)OCCCCCC)CC1 (stereo partly drawn) [Example 20, Hexyl 1-((((((R)-1-(6-amino-9H-purin-9-yl)propan-2-yl)oxy)methyl)((1-(hexyloxy)-2-methyl-1-oxopropan-2-yl)amino)phosphoryl)amino)cyclopropane-1-carboxylate]
17 | CCCCCCOC(=O)[C@](C)(Cc1ccccc1)NP(=O)(CO[C@H](C)Cn1cnc2c(N)ncnc21)N[C@@](C)(Cc1ccccc1)C(=O)OCCCCCC [Example 11, Dihexyl 2,2′-((((((R)-1-(6-amino-9H-purin-9-yl)propan-2-yl)oxy)methyl)phosphoryl)bis(azanediyl))(2S,2'S)-bis(2-methyl-3-phenylpropanoate)]
7 | CCCCCCOC(=O)C(C)(C)NP(=O)(CO[C@H](C)Cn1cnc2c(NC(=O)OCc3oc(=O)oc3C)ncnc21)NC(C)(C)C(=O)OCCCCCC [Example 33, Dihexyl 2,2′-(((((1-(6-((((5-methyl-2-oxo-1,3-dioxol-4-yl)methoxy)carbonyl)amino)-9H-purin-9-yl)propan-2-yl)oxy)methyl)phosphoryl)bis(azanediyl))(R)-bis(2-methylpropanoate)]
> 500 | CCCCCCOC(=O)C(C)(C)NP(=O)(CO[C@H](C)Cn1cnc2c(N)ncnc21)NC(C)(C)C(=O)OCC12CCC(CC1)C2 (stereo partly drawn) [Example 80, Bicyclo[2.2.1]heptan-1-ylmethyl 2-((((((R)-1-(6-amino-9H-purin-9-yl)propan-2-yl)oxy)methyl)((1-(hexyloxy)-2-methyl-1-oxopropan-2-yl)amino)phosphoryl)amino)-2-methylpropanoate]
26 | CCC[C@H]1CC[C@H](OC(=O)C(C)(C)NP(=O)(CO[C@H](C)Cn2cnc3c(N)ncnc32)NC(C)(C)C(=O)O[C@H]2CC[C@H](CCC)CC2)CC1 [Example 27]
> 500 | CCCCCCOC(=O)C(CC)(CC)NP(=O)(CO[C@H](C)Cn1cnc2c(N)ncnc21)NC(CC)(CC)C(=O)OCCCCCC [Example 65, Dihexyl 2,2′-(((((1-(6-amino-9H-purin-9-yl)propan-2-yl)oxy)methyl)phosphoryl)bis(azanediyl))(R)-bis(2-ethylbutanoate)]

Continued, compound first:

Compound | EC50 [nM]
C[C@H](Cn1cnc2c(N)ncnc21)OCP(=O)(NC(C)(C)C(=O)O[C@@H](C)C1CCCCC1)NC(C)(C)C(=O)O[C@@H](C)C1CCCCC1 [Example 56, Bis((S)-1-cyclohexylethyl) 2,2′-((((((R)-1-(6-amino-9H-purin-9-yl)propan-2-yl)oxy)methyl)phosphoryl)bis(azanediyl))bis(2-methylpropanoate)] | 177
CCC(CC)COC(=O)C(C)(C)N[P@@](=O)(CO[C@H](C)Cn1cnc2c(N)ncnc21)NC1(C(=O)OCC(CC)CC)CC1 [Example 72, 2-Ethylbutyl 1-(((S)-((((R)-1-(6-amino-9H-purin-9-yl)propan-2-yl)oxy)methyl)((1-(2-ethylbutoxy)-2-methyl-1-oxopropan-2-yl)amino)phosphoryl)amino)cyclopropane-1-carboxylate] | 16
CCC1(CC)CC(OC(=O)C(C)(C)NP(=O)(CO[C@H](C)Cn2cnc3c(N)ncnc32)NC(C)(C)C(=O)OC2CC(CC)(CC)C2)C1 [Example 49, Bis(3,3-diethylcyclobutyl) 2,2′-(((((1-(6-amino-9H-purin-9-yl)propan-2-yl)oxy)methyl)phosphoryl)bis(azanediyl))(R)-bis(2-methylpropanoate)] | 5
C[C@H](Cn1cnc2c(N)ncnc21)OCP(=O)(N[C@@](C)(Cc1ccccc1)C(=O)OCC1CCCCC1)N[C@@](C)(Cc1ccccc1)C(=O)OCC1CCCCC1 [Example 15, Bis(cyclohexylmethyl) 2,2′-((((((R)-1-(6-amino-9H-purin-9-yl)propan-2-yl)oxy)methyl)phosphoryl)bis(azanediyl))(2S,2'S)-bis(2-methyl-3-phenylpropanoate)] | 17
C[C@H](Cn1cnc2c(N)ncnc21)OCP(=O)(NC(C)(C)C(=O)O[C@H]1C[C@H](C(F)(F)F)C1)NC(C)(C)C(=O)O[C@H]1C[C@H](C(F)(F)F)C1 [Example 26, Bis(trans-3-(trifluoromethyl)cyclobutyl) 2,2′-((((((R)-1-(6-amino-9H-purin-9-yl)propan-2-yl)oxy)methyl)phosphoryl)bis(azanediyl))bis(2-methylpropanoate)] | 6
C[C@H](Cn1cnc2c(N)ncnc21)OCP(=O)(NC(C)(C)C(=O)OCC(C)(C)C)NC(C)(C)C(=O)OCC(C)(C)C [Example 5] | 5
C[C@H](Cn1cnc2c(N)ncnc21)OCP(=O)(NC(C)(C)C(=O)O[C@H](C)C1CCCCC1)NC(C)(C)C(=O)O[C@H](C)C1CCCCC1 [Example 55, Bis((R)-1-cyclohexylethyl) 2,2′-((((((R)-1-(6-amino-9H-purin-9-yl)propan-2-yl)oxy)methyl)phosphoryl)bis(azanediyl))bis(2-methylpropanoate)] | 101
C[C@H](Cn1cnc2c(N)ncnc21)OCP(=O)(NC(C)(C)C(=O)OCCC12CC(C1)C2)NC(C)(C)C(=O)OCCC12CC(C1)C2 [Example 62, Bis(2-(bicyclo[1.1.1]pentan-1-yl)ethyl) 2,2′-(((((1-(6-amino-9H-purin-9-yl)propan-2-yl)oxy)methyl)phosphoryl)bis(azanediyl))(R)-bis(2-methylpropanoate)] | 7
C[C@H](Cn1cnc2c(N)ncnc21)OCP(=O)(NC(C)(C)C(=O)OCc1ccccc1)NC(C)(C)C(=O)OCc1ccccc1 [Example 3, Dibenzyl 2,2′-(((((1-(6-amino-9H-purin-9-yl)propan-2-yl)oxy)methyl)phosphoryl)bis(azanediyl))(R)-bis(2-methylpropanoate)] | 10
C[C@H](Cn1cnc2c(N)ncnc21)OCP(=O)(NC(C)(C)C(=O)OC1CC(C2CCC2)C1)NC(C)(C)C(=O)OC1CC(C2CCC2)C1 (stereo partly drawn) [Example 90, Di([1,1′-bi(cyclobutan)]-3-yl) 2,2′-(((((1-(6-amino-9H-purin-9-yl)propan-2-yl)oxy)methyl)phosphoryl)bis(azanediyl))(R)-bis(2-methylpropanoate)] | 7
CCC(C)(C)CCOC(=O)C(C)(C)NP(=O)(CO[C@H](C)Cn1cnc2c(N)ncnc21)NC(C)(C)C(=O)OCCC(C)(C)CC [Example 54, Bis(3,3-dimethylpentyl) 2,2′-(((((1-(6-amino-9H-purin-9-yl)propan-2-yl)oxy)methyl)phosphoryl)bis(azanediyl))(R)-bis(2-methylpropanoate)] | 4
